{"source": "patent US20230413819A1", "about": "“METHODS FOR CONTROLLING FLEA AND TICK INFESTATIONS IN A MAMMAL” (In the Bowl Animal Health, Inc., priority 2021, published 2023)", "key": {"[1]": {"assay": "Plasma concentration of mivorilaner, 0.75 mg/kg daily oral (Examples 4 and 10)", "type": "in vivo, dogs", "conditions": "dog, 0.75 mg/kg/day"}, "[2]": {"assay": "Average plasma concentration of mivorilaner, various daily oral doses (Examples 5 and 11)", "type": "in vivo, dogs", "conditions": "dog, fed; for concentration at 0 h: 0 h after initial dose; for concentration at 72 h: 72 h after initial dose; for concentration at 120 h: 120 h after initial dose; for concentration at 168 h: 168 h after initial dose; for concentration at 336 h: 336 h after initial dose; for concentration at 504 h: 504 h after initial dose; for concentration at 720 h: 720 h after initial dose; for concentration at 888 h: 888 h after initial dose; for concentration at 1056 h: 1056 h after initial dose; for concentration at 1224 h: 1224 h after initial dose; for concentration at 1440 h: 1440 h after initial dose"}}, "note": "Like-named read-outs stand apart in the source and are kept apart here."}
{"molecule": "O=C(CNC(=O)c1sc(C2=NO[C@@](c3cc(Cl)c(F)c(Cl)c3)(C(F)(F)F)C2)c2c1CCC2)NCC(F)F", "note": "[mivorilaner, 3-[(5S)-5-(3,5-dichloro-4-fluorophenyl)-5-(trifluoromethyl)-4,5-dihydroisoxazol-3-yl]-N-[2-[(2,2-difluoroethyl)amino]-2-oxoethyl]-5,6-dihydro-4H-cyclopenta[c]thiophene-1-carboxamide]", "values": [{"measurement": "concentration at 3 day", "setting": "[1]; 0.75 mg/kg/day oral days 0-29, Day 3, read-out: Mivorilaner Concentration, Average of 6 canines", "result": 0.674, "unit": "µg/mL"}, {"measurement": "concentration at 3 day", "setting": "[1]; 0.75 mg/kg/day oral days 0-29, Day 3, read-out: Mivorilaner Concentration, individual canines", "result": 0.648, "unit": "µg/mL"}, {"measurement": "concentration at 7 day", "setting": "[1]; 0.75 mg/kg/day oral days 0-29, Day 7, read-out: Mivorilaner Concentration, Average of 6 canines", "result": 1.45, "unit": "µg/mL"}, {"measurement": "concentration at 7 day", "setting": "[1]; 0.75 mg/kg/day oral days 0-29, Day 7, read-out: Mivorilaner Concentration, individual canines", "result": 1.62, "unit": "µg/mL"}, {"measurement": "concentration at 14 day", "setting": "[1]; 0.75 mg/kg/day oral days 0-29, Day 14, read-out: Mivorilaner Concentration, Average of 6 canines", "result": 2.1, "unit": "µg/mL"}, {"measurement": "concentration at 14 day", "setting": "[1]; 0.75 mg/kg/day oral days 0-29, Day 14, read-out: Mivorilaner Concentration, individual canines", "result": 2.53, "unit": "µg/mL"}, {"measurement": "concentration at 21 day", "setting": "[1]; 0.75 mg/kg/day oral days 0-29, Day 21, read-out: Mivorilaner Concentration, Average of 6 canines", "result": 2.73, "unit": "µg/mL"}, {"measurement": "concentration at 21 day", "setting": "[1]; 0.75 mg/kg/day oral days 0-29, Day 21, read-out: Mivorilaner Concentration, individual canines", "result": 2.82, "unit": "µg/mL"}, {"measurement": "concentration at 30 day", "setting": "[1]; 0.75 mg/kg/day oral days 0-29, Day 30, read-out: Mivorilaner Concentration, Average of 6 canines", "result": 2.63, "unit": "µg/mL"}, {"measurement": "concentration at 37 day", "setting": "[1]; 0.75 mg/kg/day oral days 0-29, Day 37, read-out: Mivorilaner Concentration, Average of 6 canines", "result": 2.02, "unit": "µg/mL"}, {"measurement": "concentration at 37 day", "setting": "[1]; 0.75 mg/kg/day oral days 0-29, Day 37, read-out: Mivorilaner Concentration, individual canines", "result": 2.41, "unit": "µg/mL"}, {"measurement": "concentration at 0 h", "setting": "[2]; Group 2, 0.125 mg/kg/day oral", "result": 0, "unit": "µg/mL"}, {"measurement": "concentration at 72 h", "setting": "[2]; Group 2, 0.125 mg/kg/day oral", "result": 0.136, "unit": "µg/mL"}, {"measurement": "concentration at 120 h", "setting": "[2]; Group 2, 0.125 mg/kg/day oral", "result": 0.213, "unit": "µg/mL"}, {"measurement": "concentration at 168 h", "setting": "[2]; Group 2, 0.125 mg/kg/day oral", "result": 0.244, "unit": "µg/mL"}, {"measurement": "concentration at 336 h", "setting": "[2]; Group 2, 0.125 mg/kg/day oral", "result": 0.384, "unit": "µg/mL"}, {"measurement": "concentration at 504 h", "setting": "[2]; Group 2, 0.125 mg/kg/day oral", "result": 0.404, "unit": "µg/mL"}, {"measurement": "concentration at 720 h", "setting": "[2]; Group 2, 0.125 mg/kg/day oral", "result": 0.419, "unit": "µg/mL"}, {"measurement": "concentration at 888 h", "setting": "[2]; Group 2, 0.125 mg/kg/day oral", "result": 0.448, "unit": "µg/mL"}, {"measurement": "concentration at 1056 h", "setting": "[2]; Group 2, 0.125 mg/kg/day oral", "result": 0.428, "unit": "µg/mL"}, {"measurement": "concentration at 1224 h", "setting": "[2]; Group 2, 0.125 mg/kg/day oral", "result": 0.485, "unit": "µg/mL"}, {"measurement": "concentration at 1440 h", "setting": "[2]; Group 2, 0.125 mg/kg/day oral", "result": 0.897, "unit": "µg/mL"}, {"measurement": "concentration at 0 h", "setting": "[2]; Group 3, 0.25 mg/kg/day oral", "result": 0, "unit": "µg/mL"}, {"measurement": "concentration at 72 h", "setting": "[2]; Group 3, 0.25 mg/kg/day oral", "result": 0.283, "unit": "µg/mL"}, {"measurement": "concentration at 120 h", "setting": "[2]; Group 3, 0.25 mg/kg/day oral", "result": 0.45, "unit": "µg/mL"}, {"measurement": "concentration at 168 h", "setting": "[2]; Group 3, 0.25 mg/kg/day oral", "result": 0.579, "unit": "µg/mL"}, {"measurement": "concentration at 336 h", "setting": "[2]; Group 3, 0.25 mg/kg/day oral", "result": 0.883, "unit": "µg/mL"}, {"measurement": "concentration at 504 h", "setting": "[2]; Group 3, 0.25 mg/kg/day oral", "result": 0.878, "unit": "µg/mL"}, {"measurement": "concentration at 720 h", "setting": "[2]; Group 3, 0.25 mg/kg/day oral", "result": 1.02, "unit": "µg/mL"}, {"measurement": "concentration at 888 h", "setting": "[2]; Group 3, 0.25 mg/kg/day oral", "result": 1, "unit": "µg/mL"}, {"measurement": "concentration at 1056 h", "setting": "[2]; Group 3, 0.25 mg/kg/day oral", "result": 0.945, "unit": "µg/mL"}, {"measurement": "concentration at 1224 h", "setting": "[2]; Group 3, 0.25 mg/kg/day oral", "result": 1.04, "unit": "µg/mL"}, {"measurement": "concentration at 1440 h", "setting": "[2]; Group 3, 0.25 mg/kg/day oral", "result": 0.999, "unit": "µg/mL"}, {"measurement": "concentration at 0 h", "setting": "[2]; Group 4, 0.5 mg/kg/day oral", "result": 0, "unit": "µg/mL"}, {"measurement": "concentration at 72 h", "setting": "[2]; Group 4, 0.5 mg/kg/day oral", "result": 0.474, "unit": "µg/mL"}, {"measurement": "concentration at 120 h", "setting": "[2]; Group 4, 0.5 mg/kg/day oral", "result": 0.763, "unit": "µg/mL"}, {"measurement": "concentration at 168 h", "setting": "[2]; Group 4, 0.5 mg/kg/day oral", "result": 0.888, "unit": "µg/mL"}, {"measurement": "concentration at 336 h", "setting": "[2]; Group 4, 0.5 mg/kg/day oral", "result": 1.46, "unit": "µg/mL"}, {"measurement": "concentration at 504 h", "setting": "[2]; Group 4, 0.5 mg/kg/day oral", "result": 1.63, "unit": "µg/mL"}, {"measurement": "concentration at 720 h", "setting": "[2]; Group 4, 0.5 mg/kg/day oral", "result": 1.87, "unit": "µg/mL"}, {"measurement": "concentration at 888 h", "setting": "[2]; Group 4, 0.5 mg/kg/day oral", "result": 1.99, "unit": "µg/mL"}, {"measurement": "concentration at 1056 h", "setting": "[2]; Group 4, 0.5 mg/kg/day oral", "result": 2.01, "unit": "µg/mL"}, {"measurement": "concentration at 1224 h", "setting": "[2]; Group 4, 0.5 mg/kg/day oral", "result": 2.32, "unit": "µg/mL"}, {"measurement": "concentration at 1440 h", "setting": "[2]; Group 4, 0.5 mg/kg/day oral", "result": 2.3, "unit": "µg/mL"}, {"measurement": "concentration at 0 h", "setting": "[2]; Group 5, 1.0 mg/kg/day oral", "result": 0, "unit": "µg/mL"}, {"measurement": "concentration at 72 h", "setting": "[2]; Group 5, 1.0 mg/kg/day oral", "result": 0.951, "unit": "µg/mL"}, {"measurement": "concentration at 120 h", "setting": "[2]; Group 5, 1.0 mg/kg/day oral", "result": 1.51, "unit": "µg/mL"}]}
